# Results from patent US20210283261A1, “Compositions and Methods for Treating ALK-Mediated Cancer” (ICAHN SCHOOL OF MEDICINE AT MOUNT SINAI, priority 2017, published 2021).
# How the values were obtained:
# Type in all cases: cell-based
# [1] = target: T1, NPM-ALK fusion protein (Homo sapiens, UniProt Q9UM73); experiment: Western blot of NPM-ALK fusion protein levels in SU-DHL-1 cells; settings: for effect on ALK fusion protein levels, concentration dependence: SU-DHL-1 cells, 0, 10, 20, 40, 80 and 160 nM; for effect on NPM-ALK fusion protein levels, concentration dependence: SU-DHL-1 cells, 1, 3, 10, 30 or 100 nM
# T1 construct: endogenous in cells; host or cells: SU-DHL-1; the other entry of the earlier key: NPM1 (P06748, Nucleophosmin)
# T1 sequence (Q9UM73 with tags, fused parts or gaps): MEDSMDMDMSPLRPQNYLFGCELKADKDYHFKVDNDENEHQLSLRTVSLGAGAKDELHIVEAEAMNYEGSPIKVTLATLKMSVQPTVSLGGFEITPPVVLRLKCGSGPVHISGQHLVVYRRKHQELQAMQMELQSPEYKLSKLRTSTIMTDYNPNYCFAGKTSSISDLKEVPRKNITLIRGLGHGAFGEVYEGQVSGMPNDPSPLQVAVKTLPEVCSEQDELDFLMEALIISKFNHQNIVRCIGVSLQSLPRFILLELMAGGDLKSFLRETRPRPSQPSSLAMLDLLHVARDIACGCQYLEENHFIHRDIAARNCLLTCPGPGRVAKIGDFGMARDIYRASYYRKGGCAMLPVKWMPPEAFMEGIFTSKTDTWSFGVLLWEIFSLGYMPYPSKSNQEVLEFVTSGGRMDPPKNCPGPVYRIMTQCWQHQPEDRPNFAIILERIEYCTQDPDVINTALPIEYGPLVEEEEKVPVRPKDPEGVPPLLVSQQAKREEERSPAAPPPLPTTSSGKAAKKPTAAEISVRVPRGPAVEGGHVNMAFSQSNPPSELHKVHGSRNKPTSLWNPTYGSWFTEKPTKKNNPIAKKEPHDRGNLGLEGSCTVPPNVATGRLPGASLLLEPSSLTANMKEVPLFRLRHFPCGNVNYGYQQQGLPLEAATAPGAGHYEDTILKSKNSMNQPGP
# Experimental: (§1) Cells were cultured in a 37° C. incubator with 5% CO2.
# (§2) Cells were washed with cold PBS once and lysed in 1× Laemmli loading buffer directly. […] Membrane was blocked in 5% milk in Tris-buffered saline and Tween 20 (TBST) for 1 h at room temperature, followed by incubation with a primary antibody overnight at 4° C., and a horseradish peroxidase (HRP)-conjugated secondary antibody for 1 h at room temperature. The membrane was imaged by a ChemiDoc MP imaging system (BIO-RAD). Antibodies against GAPDH (abeam), Phospho-ALK (Tyr1507), ALK (Cell Signaling Technology), Tubulin (Santa Cruz) were purchased commercially.
# SU-DHL-1 suspension cells were seeded in 12-well plates at a density of 6×10^5/mL and treated with DMSO or indicated compounds at 30 nM or 100 nM for indicated time.
# SU-DHL-1 cells were seeded in 12-well plates at a density of 4×10^5/mL and treated with DMSO or indicated serial dilutions of compounds for 16 h. The NPM-ALK fusion protein levels were determined by Western blot and normalized against GPADH (right panel).
# [2] = tested on: SU-DHL-1 cells; experiment: Cell viability assay in SU-DHL-1 cells; settings: for inhibition of cell viability: 3 days
# Experimental: SU-DHL-1 cells were seeded in 96-well plates at a density of 1×10^4 cells per well, in triplicate. Treated cells with DMSO or indicated serial dilutions of compounds for 2.5 days. Cell growth/survival was measured by using the CellTiter-Glo luminescent cell viability assay following the manufacturer's instructions (Promega) or CCK8 cell viability assay (Sigma). Data was analyzed by using the GraphPad Prism software, Error bars represent ±SD for triplicate experiments.
# SU-DHL-1 cells were seeded in 96-well plates at a density of 1×10^4 cells per well, in triplicate. Treated cells with DMSO or indicated serial dilutions of compounds for 2.5 days. Cell growth/survival was measured by using the CellTiter-Glo luminescent cell viability assay. Data was analyzed by using the GraphPad Prism software, Error bars represent ±SD for triplicate experiments (left panel).
# SU-DHL-1 cells were seeded in 96-well plates at a density of 5000 cells per well, in triplicate. The cells were treated with DMSO or indicated serial dilutions of compounds for 3 days. Cell growth was measured using the CellTiter-Glo luminescent cell viability assay. Data were analyzed using the GraphPad Prism.
# (§3) SU-DHL-1 and NCI-3122 cells were treated with DMSO or indicated serial dilutions of compounds for 3 days. Data were analyzed using the GraphPad Prism.
# [3] = tested on: ALK; experiment: Characterization of ALK degraders in ALCL and NSCLC cells (summary); settings: summary statement
# Description: Specific exemplary ALK degraders/disruptors were characterized in various different anaplastic large cell lymphoma (ALCL) cells and non-small cell lung cancer (NSCLC) cells (Examples 4-19, FIGS. 1-18). […] This efficacy in suppressing ALK expression and ALK activity correlated with efficacy in inhibiting cancer cell proliferation.
# [4] = target: T2, ALK fusion protein (Homo sapiens, UniProt Q9UM73); experiment: Western blot of ALK fusion protein levels in NCI-H3122 cells; settings: for Dmax at 0.5 µM: NCI-H3122, NCI-H3122 cells, 500 nM, Western blot, read-out: ALK fusion protein degradation, NCI-H3122 (500 nM); for effect on ALK fusion protein levels, concentration dependence: NCI-H3122 cells, 0, 50, 100, 200, 400 and 800 nM
# T2 construct: endogenous in cells; host or cells: NCI-H3122; the other entry of the earlier key: EML4 (Q9HC35, Echinoderm microtubule-associated protein-like 4)
# T2 sequence (Q9UM73 with tags, fused parts or gaps): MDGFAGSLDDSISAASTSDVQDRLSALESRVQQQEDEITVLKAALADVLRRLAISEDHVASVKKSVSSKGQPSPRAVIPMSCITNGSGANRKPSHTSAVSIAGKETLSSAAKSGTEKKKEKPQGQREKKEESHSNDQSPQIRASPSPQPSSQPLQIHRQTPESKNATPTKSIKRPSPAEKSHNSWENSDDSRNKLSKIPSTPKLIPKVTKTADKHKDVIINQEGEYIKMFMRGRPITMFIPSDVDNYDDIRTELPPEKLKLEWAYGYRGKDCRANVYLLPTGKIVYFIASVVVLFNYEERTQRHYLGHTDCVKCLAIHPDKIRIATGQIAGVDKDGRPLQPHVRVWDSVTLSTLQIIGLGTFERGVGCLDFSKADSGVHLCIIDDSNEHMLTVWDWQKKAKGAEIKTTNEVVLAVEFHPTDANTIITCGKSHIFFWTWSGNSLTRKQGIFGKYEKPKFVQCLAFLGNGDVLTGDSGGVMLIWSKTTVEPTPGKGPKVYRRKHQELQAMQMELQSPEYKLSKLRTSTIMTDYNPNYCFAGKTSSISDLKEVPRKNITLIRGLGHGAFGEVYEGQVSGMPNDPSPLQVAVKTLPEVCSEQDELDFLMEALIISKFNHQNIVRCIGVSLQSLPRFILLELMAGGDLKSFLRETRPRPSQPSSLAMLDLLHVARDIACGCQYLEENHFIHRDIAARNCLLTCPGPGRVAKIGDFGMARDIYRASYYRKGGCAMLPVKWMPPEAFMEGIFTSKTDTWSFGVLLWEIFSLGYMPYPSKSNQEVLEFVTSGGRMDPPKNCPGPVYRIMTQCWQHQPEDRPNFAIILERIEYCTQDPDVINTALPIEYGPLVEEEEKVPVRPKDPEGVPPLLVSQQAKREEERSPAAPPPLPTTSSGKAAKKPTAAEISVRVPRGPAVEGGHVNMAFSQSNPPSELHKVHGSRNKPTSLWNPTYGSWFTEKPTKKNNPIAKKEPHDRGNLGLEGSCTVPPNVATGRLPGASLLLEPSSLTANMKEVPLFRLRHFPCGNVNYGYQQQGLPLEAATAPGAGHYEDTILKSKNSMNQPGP
# [5] = tested on: NCI-H3122 cells; experiment: Cell viability assay in NCI-H3122 cells; settings: 3 days
# Experimental: SU-DHL-1, NCI-H3122 and NCI-H2228 cells were cultured in RPMI-1640 medium supplemented with 10% fetal bovine serum, 50 μg/mL penicillin and streptomycin. Cells were cultured in a 37° C. incubator with 5% CO2.
# as §3
# [6] = target: T3, EML4-ALK v3 fusion protein (Homo sapiens, UniProt Q9UM73); experiment: Western blot of EML4-ALK v3 fusion protein levels in NCI-H2228 cells; settings: 16 h; for effect on EML4-ALK fusion protein levels, concentration dependence: NCI-H2228 cells, 1, 3, 10, 30 or 100 nM
# T3 construct: endogenous in cells; host or cells: NCI-H2228
# T3 sequence (Q9UM73 1058-1620 limits assumed): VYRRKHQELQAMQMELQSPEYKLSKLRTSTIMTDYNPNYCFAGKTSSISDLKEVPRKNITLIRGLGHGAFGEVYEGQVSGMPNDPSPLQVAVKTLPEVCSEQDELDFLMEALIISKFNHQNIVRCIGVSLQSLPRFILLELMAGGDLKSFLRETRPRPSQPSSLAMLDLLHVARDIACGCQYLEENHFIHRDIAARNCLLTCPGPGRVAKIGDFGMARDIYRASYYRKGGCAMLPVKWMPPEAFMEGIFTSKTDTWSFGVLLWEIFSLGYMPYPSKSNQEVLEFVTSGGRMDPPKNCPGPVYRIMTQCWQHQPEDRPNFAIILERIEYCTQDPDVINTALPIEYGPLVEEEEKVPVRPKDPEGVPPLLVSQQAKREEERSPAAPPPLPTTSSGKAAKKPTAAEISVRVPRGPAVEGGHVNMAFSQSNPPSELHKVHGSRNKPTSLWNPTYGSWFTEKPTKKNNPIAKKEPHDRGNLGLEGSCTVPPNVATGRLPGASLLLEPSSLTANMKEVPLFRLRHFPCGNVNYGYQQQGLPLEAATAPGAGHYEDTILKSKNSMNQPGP
# Experimental: as §1, §2
# Cells were 70% confluent and treated with DMSO or indicated serial dilutions of compounds for 16 h. The EML4-ALK fusion protein levels were determined by Western blot and normalized against GPADH (right panel).
SMILES,suppressing both ALK expression and ALK activity [3],Dmax at 0.5 µM [4],"effect on ALK fusion protein levels, concentration dependence ([4]; 16 h)","effect on ALK fusion protein levels, concentration dependence ([1]; 16 h)",inhibition of cell viability [2],inhibition of cell viability [5],"effect on NPM-ALK fusion protein levels, concentration dependence ([1]; 16 h)","effect on EML4-ALK fusion protein levels, concentration dependence [6]",further results
"Cc1cc(Nc2ncc(Cl)c(Nc3ccccc3S(=O)(=O)C(C)C)n2)c(OC(C)C)cc1C1CCN(CC(=O)NCCOCCOCCOCCOCCNc2cccc3c2C(=O)N(C2CCC(=O)NC2=O)C3=O)CC1 (stereo not shown) [CZ40-53, 2-(4-(4-((5-Chloro-4-((2-(isopropylsulfonyl)phenyl)amino)pyrimidin-2-yl)amino)-5-isopropoxy-2-methylphenyl)piperidin-1-yl)-N-(14-((2-(2,6-dioxopiperidin-3-yl)-1,3-dioxoisoindolin-4-yl)amino)-3,6,9,12-tetraoxatetradecyl)acetamide]",especially effective,,,,,,,,"Dmax at 0.03 µM ([1]; SU-DHL-1 cells, 30 nM, Western blot, read-out: ALK fusion protein degradation, SU-DHL-1 (30 nM)): > 80%; GI50 ([2]; Homo sapiens, 60 h, 2.5 days, CellTiter-Glo, read-out: GI50 (drug concentration that results in 50% growth inhibition)): < 40 nM"
Cc1cc(Nc2ncc(Cl)c(Nc3ccccc3S(=O)(=O)C(C)C)n2)c(OC(C)C)cc1C1CCN(C(=O)CCCCC(=O)N[C@H](C(=O)N2C[C@H](O)C[C@H]2C(=O)N[C@@H](C)c2ccc(-c3scnc3C)cc2)C(C)(C)C)CC1 [HC58-100],especially effective,> 80%,concentration-dependently reduced,concentration-dependently reduced,significantly inhibited,significantly inhibited,,,
"Cc1cc(Nc2ncc(Cl)c(Nc3ccccc3S(=O)(=O)C(C)C)n2)c(OC(C)C)cc1C1CCNCC1 [ceritinib, reference compound]",,,,,,,no significant effect,no significant effect,"effect on NPM-ALK fusion protein levels ([1]; SU-DHL-1 cells, 30 nM or 100 nM): no effect; effect on ALK protein levels ([6]; NCI-H2228 cells, 100 nM): no distinct effect"
"Cc1cc(Nc2ncc(Cl)c(Nc3ccccc3S(=O)(=O)C(C)C)n2)c(OC(C)C)cc1C1CCN(CC(=O)NCCOCCOCCOCCOCCOCCNc2cccc3c2C(=O)N(C2CCC(=O)N(C)C2=O)C3=O)CC1 (stereo not drawn) [CZ47-48, 2-(4-(4-((5-Chloro-4-((2-(isopropylsulfonyl)phenyl)amino)pyrimidin-2-yl)amino)-5-isopropoxy-2-methylphenyl)piperidin-1-yl)-N-(17-((2-(l-methyl-2,6-dioxopiperidin-3-yl)-1,3-dioxoisoindolin-4-yl)amino)-3,6,9,12,15-pentaoxaheptadecyl)acetamide]",,< 20%,,,,,no significant effect,no significant effect,
"Cc1cc(Nc2ncc(Cl)c(Nc3ccccc3S(=O)(=O)C(C)C)n2)c(OC(C)C)cc1C1CCN(C(=O)COCCOCC(=O)N[C@H](C(=O)N2C[C@H](O)C[C@H]2C(=O)N[C@@H](C)c2ccc(-c3scnc3C)cc2)C(C)(C)C)CC1 [HC58-98, (2S,4R)-1-((S)-2-(2-(2-(2-(4-(4-((5-Chloro-4-((2-(isopropylsulfonyl)phenyl)amino)pyrimidin-2-yl)amino)-5-isopropoxy-2-methylphenyl)piperidin-1-yl)-2-oxoethoxy)ethoxy)acetamido)-3,3-dimethylbutanoyl)-4-hydroxy-N—((S)-1-(4-(4-methylthiazol-5-yl)phenyl)ethyl)pyrrolidine-2-carboxamide]",especially effective,> 80%,concentration-dependently reduced,concentration-dependently reduced,significantly inhibited,significantly inhibited,,,
"Cc1cc(Nc2ncc(Cl)c(Nc3ccccc3S(=O)(=O)C(C)C)n2)c(OC(C)C)cc1C1CCN(C(=O)CCCC(=O)N[C@H](C(=O)N2C[C@H](O)C[C@H]2C(=O)N[C@@H](C)c2ccc(-c3scnc3C)cc2)C(C)(C)C)CC1 [HC58-99, (2S,4R)-1-((S)-2-(5-(4-(4-((5-Chloro-4-((2-(isopropylsulfonyl)phenyl)amino)pyrimidin-2-yl)amino)-5-isopropoxy-2-methylphenyl)piperidin-1-yl)-5-oxopentanamido)-3,3-dimethylbutanoyl)-4-hydroxy-N—((S)-1-(4-(4-methylthiazol-5-yl)phenyl)ethyl)pyrrolidine-2-carboxamide]",especially effective,> 80%,concentration-dependently reduced,concentration-dependently reduced,significantly inhibited,significantly inhibited,,,
"Cc1cc(Nc2ncc(Cl)c(Nc3ccccc3S(=O)(=O)C(C)C)n2)c(OC(C)C)cc1C1CCN(C(=O)CCCCC(=O)N[C@H](C(=O)N2C[C@H](O)C[C@H]2C(=O)NCc2ccc(-c3scnc3C)cc2)C(C)(C)C)CC1 [CZ47-24, (2S,4R)-1-((S)-2-(6-(4-(4-((5-Chloro-4-((2-(isopropylsulfonyl)phenyl)amino)pyrimidin-2-yl)amino)-5-isopropoxy-2-methylphenyl)piperidin-1-yl)-6-oxohexanamido)-3,3-dimethylbutanoyl)-4-hydroxy-N-(4-(4-methylthiazol-5-yl)benzyl)pyrrolidine-2-carboxamide]",especially effective,> 80%,concentration-dependently reduced,concentration-dependently reduced,significantly inhibited,significantly inhibited,,,"significantly reduced ALK fusion protein levels (degraders vs negative controls) ([4]; NCI-H3122 cells, 16 h): significantly reduced; rescue of induced ALK fusion protein degradation by MG-132 and MLN4924 ([1]; SU-DHL-1 cells, 2 h pre-treatment, then 100 nM compound for 6 h): significantly rescued; significantly reduced ALK fusion protein levels (degraders vs negative controls) ([1]; SU-DHL-1 cells, 16 h): significantly reduced"
"Cc1cc(Nc2ncc(Cl)c(Nc3ccccc3S(=O)(=O)C(C)C)n2)c(OC(C)C)cc1C1CCN(CC(=O)NCCNc2cccc3c2C(=O)N(C2CCC(=O)N(C)C2=O)C3=O)CC1 (stereo not drawn) [CZ47-40, 2-(4-(4-((5-Chloro-4-((2-(isopropylsulfonyl)phenyl)amino)pyrimidin-2-yl)amino)-5-isopropoxy-2-methylphenyl)piperidin-1-yl)-N-(2-((2-(l-methyl-2,6-dioxopiperidin-3-yl)-1,3-dioxoisoindolin-4-yl)amino)ethyl)acetamide]",,< 20%,,,,,no significant effect,no significant effect,
